Test results: paper PMC4633953, “FR171456 is a specific inhibitor of mammalian NSDHL and yeast Erg26p” (Nature Communications, 2015)
Where “and” joins values, the source holds several entries; their conditions need not be identical. Equal entries are not always repeated.

Columns and labels:
[1] = system: Aspergillus fumigatus NF4905; experiment: Antifungal MIC; assay type: cell-based
[2] = system: Cryptococcus neoformans NF3102; experiment: Antifungal MIC; assay type: cell-based
Aspergillus favus NF4902 = experiment: Antifungal MIC; assay type: cell-based
delta-opioid receptor = delta-opioid receptor (Homo sapiens, UniProt P41143); experiment: Radioligand competition assay; assay type: binding
Sequence of delta-opioid receptor (P41143 whole entry): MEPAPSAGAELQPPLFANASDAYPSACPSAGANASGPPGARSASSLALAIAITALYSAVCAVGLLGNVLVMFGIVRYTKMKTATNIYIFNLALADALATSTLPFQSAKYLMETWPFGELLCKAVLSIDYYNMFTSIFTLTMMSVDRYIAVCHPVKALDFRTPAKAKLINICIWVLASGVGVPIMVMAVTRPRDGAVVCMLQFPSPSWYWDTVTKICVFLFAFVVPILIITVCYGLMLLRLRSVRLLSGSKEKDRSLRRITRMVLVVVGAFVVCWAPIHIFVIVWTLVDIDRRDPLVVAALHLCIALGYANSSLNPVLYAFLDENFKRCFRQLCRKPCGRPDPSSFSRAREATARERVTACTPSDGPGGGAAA

[3] = system: Aspergillus terreus NF4906; experiment: Antifungal MIC; assay type: cell-based
[4] = system: panel of 24 receptors/enzymes; experiment: Pharmacological profiling against a panel of 24 receptors/enzymes; assay type: binding
Erg26p Arg315His = experiment: In vitro microsomal Erg26p activity assay, mutant; assay type: biochemical, S. cerevisiae; conditions: microsome extracts
Excerpt: (§1) Thus many of the FR171456 resistance mutations were mapped close to the NAD^+ or the substrate-binding site. The presence of three active conservative mutations Arg39Lys, […], and Arg315His in proximity to NAD^+ and substrate-binding site are consistent with FR171456 binding the substrate-binding pocket thus inhibiting the enzymatic activity. To address this more directly, we tested microsome extracts from the erg26Δ haploid yeast strains expressing the Erg26p wild type, Arg39Lys, Arg307His and Arg315His mutants in increasing doses of FR171456 to assess Erg26p mutant activity (Fig. 3b). Whilst Arg39Lys and Arg307His shift the I50 2-fold, Arg315His confers a 20-fold shift in I50. This highlights the importance of the interaction between Arg315 and the carboxyl group of the substrate/inhibitor as one of the most critical in the Erg26p active site (Fig. 3c).
(§2) Wild-type yeast (FL200) microsomes were prepared as follows.

Erg26p Arg307His = experiment: In vitro microsomal Erg26p activity assay, mutant; assay type: biochemical, S. cerevisiae; conditions: microsome extracts
Excerpt: as §1, §2

Erg26p Arg39Lys = experiment: In vitro microsomal Erg26p activity assay, mutant; assay type: biochemical, S. cerevisiae; conditions: microsome extracts
Excerpt: as §1, §2

[5] = system: Candida parapsilosis NF2903; experiment: Antifungal MIC; assay type: cell-based; conditions: Lodderomyces parapsilosis
HepG2 = experiment: Mammalian cell proliferation, HepG2; assay type: cell-based
Erg26p = molecular target: T1, Erg26p (Saccharomyces cerevisiae, UniProt P53199); experiment: In vitro microsomal Erg26p activity assay (GC-MS)
T1 sequence (P53199 1-349): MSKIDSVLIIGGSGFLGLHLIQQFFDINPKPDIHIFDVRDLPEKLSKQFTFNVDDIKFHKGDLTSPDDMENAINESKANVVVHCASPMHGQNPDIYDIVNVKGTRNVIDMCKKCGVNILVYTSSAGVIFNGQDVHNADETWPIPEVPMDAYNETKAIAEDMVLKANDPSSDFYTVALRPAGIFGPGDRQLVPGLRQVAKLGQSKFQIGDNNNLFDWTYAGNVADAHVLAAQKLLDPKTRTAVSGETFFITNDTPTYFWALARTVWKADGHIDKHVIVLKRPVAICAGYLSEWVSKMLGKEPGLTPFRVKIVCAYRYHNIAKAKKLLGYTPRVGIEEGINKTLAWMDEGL
Method: To test this hypothesis an in vitro microsomal Erg26p activity assay[30] was used. Erg26p activity was directly assessed in the presence of increasing concentrations of FR171456 (10 nM–0.1 mM) in the presence of 150 μM carboxysterol substrate (Fig. 1c) and the cofactor NAD^+ (0.5 mM) followed by GC-MS detection of the product 4α-methyl-cholest-8,24-dien-3-one.
Wild-type yeast (FL200) microsomes were prepared as follows. Yeast cells were disrupted by glass bead homogenization (0.45-mm diameter) in 100 mM phosphate buffer (pH 7.5) containing 1.5 mM reduced glutathione and 30 mM nicotinamide for 8 min at 0 °C[44]. The cell extract was obtained by centrifugation at 10,000 × g for 20 min. Microsomes were then isolated by centrifuging the cell extract supernatant at 100,000 × g for 90 min. The resulting microsomal pellet was resuspended in 100 mM phosphate buffer (pH 7.5) containing 3 mM reduced glutathione and 20% glycerol (v/v) using an Elvehjem–Potter homogenizer. Yeast microsomes (1.2 mg of protein) were incubated in the presence of 4α-carboxy-4β-methyl-cholest-8,24-dien-3β-ol (50–300 mM) and NAD^+ (0.5 mM) for 35–45 min at 30 °C. After addition of coprostanone (2–6 μg) as internal standard, the reactions were extracted as described previously[12]. The extract was analysed by TLC on silica gel and eluted twice with CH2Cl2. The fraction migrating between a standard of 4-desmethyl-sterone (RF= 0.50) and 4,4-dimethyl-sterone (RF=0.70) was eluted and analysed using a GC-MS spectrometer (Agilent 5973 N).
In the case of inhibition assays, microsomes were incubated for 35–45 min at 30 °C in the presence of 4α-carboxy-4β-methyl-cholest-8,24-dien-3β-ol (50–300 mM) and a range of inhibitor concentration (0.01–100 μM) from which a dose–response curve was obtained allowing the corresponding I50 values to be determined.
The GC-MS spectrometer (Agilent 5973 N) was equipped with an ‘on column' injector and a capillary column (30 × 0.25 mm) coated with DB5 (H2 flow rate of 2 ml min^−1). The temperature program included a 30 °C min^−1 increase from 60 °C to 240 °C, and followed by a 2 °C/min increase from 240 °C to 280 °C. The areas of the GC peaks of coprostanone (tR=1.000) and of the produced 4α-methyl-cholest-8,24-dien-3-one (tR=1.139), corrected from endogenous component of the same tR (1.139) determined in the blank (boiled microsomes), allowed the rate of transformation of 4α-carboxy-4β-methyl-cholest-8,24-dien-3β-ol to be measured. Under these conditions, the estimated limit of detection of the 3βHSD/D activity was 0.1 nmol h^−1 mg^−1.

[6] = system: sterol pathway intermediates in Huh-7 cells; conditions: 80 nM vs 0 nM FR171456, 48 h
Method: In an attempt to understand which sterol (and other) metabolites are altered by FR171456 a metabolite-profiling experiment was conducted using cells from the original replicon assay exposed to vehicle or four concentrations of FR171456 (Fig. 1c,f, Methods, supplementary Fig. 2). Peaks in the mass spectra with statistically significant differences in intensities between the high (80 nM) and low (0 nM) concentration samples were selected by P values <0.01 (Student's t-test, Bonferroni corrected) and ranked by fold changes. Metabolite identities were assigned to those peaks whose m/z ratio corresponds to the mass of known metabolites (Supplementary Table 1).
Samples of cell pellets containing 8 × 10^6 cells each were lysed and extracted with 300 μl cold methanol (−80 °C) in ultrasonic bath for 10 min and subsequently agitated for 5 min before centrifugation at 10,000 g for 5 min at 4 °C. The supernatants were removed and the remaining pellets were again extracted twice. The supernatants from three extractions were then combined and dried using a SpeedVac (Savant, Fisher Scientific Inc., USA) for 2 h without heating. The residues were resuspended in 200 μl of 80% MeOH and centrifuged to remove any non-dissolvable particles. Finally, 10 μl of the supernatant was then diluted by factor 100 in MeOH/H2O (1:1) for mass spectrometric analysis.
The diluted sample (100 μl) was infused directly into a LTQ-Orbitrap mass spectrometer (Thermo Fisher Scientific, USA) using a HTC PAL autosampler (CTC Analytics, Zwingen, Switzerland) at a flow rate of 18 μl min^–1. A make-up flow, consisting of 70% ethanol and 0.1% formic acid, was delivered through a T-piece at 15 μl min^–1. Electrospray ionization and selected monitoring scan were applied. The total mass range m/z 100–2,000 was segmented into […] scan events with a width of mass window m/z 50 each. Mass resolution at m/z 400 was 100,000.
Each sample was measured in triplicate in positive ionization mode in random order. For quality and instrument stability control, the samples were interspersed with test mix infusion and pooled samples. Blank spectra were also recorded and the observed mass peaks of solvent and impurities were then suppressed in subsequent analysis.
The measured raw spectra were imported with in-house software written in the Igor package (Wavemetrics Inc.) for alignment, peak detection, and integral normalization. The table of exact peak masses and intensities (Supplementary Data, file Supplementary Dataset 1) were exported into the statistical software R, version 2.15.1, for subsequent univariate statistics and pathway analysis. For peak identification, the KEGG database was searched for matches of the observed peaks with endogenous metabolite entries. Metabolite masses with adducts of H^+, Na^+, or K^+ were considered a hit and possible identity of a peak if the difference between its exact monoisotopic mass and the observed mass plus adducts was below 3 p.p.m.

Candida glabrata NF2905 = experiment: Antifungal MIC; assay type: cell-based; conditions: Nakaseomyces glabratus

## C=C(CCC(C)C1CCC2C1(C)CC(O)C13CC14C(=O)CC(O)C(C)(C(=O)O)C4C(=O)CC23O)C(C)C [FR171456, (1R,2aR,3R,5aR,5bS,7aR,8S,9S,11aS,12aR)-1,5b,9-trihydroxy-2a,8-dimethyl-3-((R)-6-methyl-5-methyleneheptan-2-yl)-7,11-dioxohexadecahydrocyclopenta[a]cyclopropa[e]-phenanthrene-8-carboxylic acid]
[1]
  MIC: 16 µg/mL and 36 µM
[2]
  MIC: 32 µg/mL and 72 µM
Aspergillus favus NF4902
  MIC: 64 µg/mL and 144 µM
delta-opioid receptor
  IC50: 100 nM
[3]
  MIC: 4 µg/mL and 9 µM
[4]
  specificity in receptor/enzyme panel: only one target with significant binding
Erg26p Arg315His
  shift in I50 versus wild type: 20 fold
Erg26p Arg307His
  shift in I50 versus wild type: 2 fold
Erg26p Arg39Lys
  shift in I50 versus wild type: 2 fold
[5]
  MIC: 32 µg/mL and 72 µM
HepG2
  concentration affecting proliferation: 80 µM
Erg26p
  Ki: 1350 ± 300 nM
Erg26p; for the carboxysterol substrate
  I50/Km ratio: ~4 × 10^−3
[6]
  Fold change, m/z 401.3418 (calcidiol, 7α-hydroxycholest-4-en-3-one): 0.680
  Fold change, m/z 463.3183 (pfaffic acid): infinite
  Fold change, m/z 465.3339 (4α-methylzymosterol-4-carboxylate): 822.2
  Fold change, m/z 467.3496 (3β-hydroxy-4β-methyl-5α-cholest-7-ene-4α-carboxylate): 3675.4
  Fold change, m/z 489.3314 (not identified): infinite
  Fold change, m/z 1198.8982 (not identified): 9665.6
Candida glabrata NF2905
  MIC: 16 µg/mL and 36 µM
